These results are taken from PMC9414972, “α-Glucosidase and α-Amylase Inhibitory Potentials of Quinoline–1,3,4-oxadiazole Conjugates Bearing 1,2,3-Triazole with Antioxidant Activity, Kinetic Studies, and Computational Validation” (Pharmaceuticals, 2022).

Series [1] addresses T1, α-glucosidase (Saccharomyces cerevisiae, UniProt P38158).
T1 construct: purchased Merck
Briefly: Mode of α-glucosidase inhibition (enzyme kinetics, Lineweaver–Burk). The note with it: Lineweaver–Burk plots; inhibitor 0, 75, 150, 300 µM; pNPG. Type of series: biochemical. From the text:
Understanding a drug’s mode of inhibiting its target is crucial to improve the drug’s activity profile and target specificity. Although orthosteric inhibition, in which the ligand binds at the target’s active site, dominates among currently available drugs, allosteric inhibitors (i.e., drugs binding at regions […] the active site) are desirable due to their reduced vulnerability to active site mutation or to displacement through native substrate overload at the active site. Accordingly, the mode of α-glucosidase inhibition was investigated for promising compounds 4b, 4i, 4j, 4k, 4l, 12k, and 12m, using a time-dependent para-nitrophenyl-[…] (pNPG) assay; the results are presented as Lineweaver–Burk plots (Figure 4). […] Conceivably, this can result in decreased systemic glucose concentration thus alleviating postprandial hyperglycemia and its associated complications.
The mode of inhibition of α-glucosidase of the 4b, 4i, 4j, 4k, 4l, 12k, and 12m compounds was determined using the method described by Kazeem et al. 2013, with modifications. Briefly, 50 µL of the 4b, 4i, 4j, 4k, 4l, 12k, and 12m compounds at (0 µM, 75 µM, 150 µM and 300 µM) concentrations were preincubated with 100 µL of α-glucosidase solution for 10 min at 25 °C in one set of tubes. In another set of tubes, α-glucosidase was preincubated with 50 µL of phosphate buffer (pH 6.9). 25 µL of pNPG at increasing concentrations (0.125–4.0 mg/mL) was added to both sets of solution to start the reaction. Immediately, the absorbance of the resulting solution was monitored for 2 min in a spectrophotometer at 405 nm. The amount of 4-nitrophenol released was determined from a 4-nitrophenol standard curve and then converted to reaction velocities.

Series [2] is described as follows: DPPH radical scavenging activity. Particulars: DPPH radical scavenging, 30 min, 25 °C. The procedure: The DPPH assay is used conventionally to quantify a compound’s ability to trap free radicals.
The compounds were evaluated for their ability to scavenge stable DPPH radicals, using a modification of the method by Turkoglu et al..
On the technique in general: Loss of DPPH colour is used to gauge radical scavenging.

Series [3] addresses T2, porcine pancreatic amylase (Sus scrofa, UniProt P00690).
T2 construct: purchased Merck
T2 sequence (P00690 16-511): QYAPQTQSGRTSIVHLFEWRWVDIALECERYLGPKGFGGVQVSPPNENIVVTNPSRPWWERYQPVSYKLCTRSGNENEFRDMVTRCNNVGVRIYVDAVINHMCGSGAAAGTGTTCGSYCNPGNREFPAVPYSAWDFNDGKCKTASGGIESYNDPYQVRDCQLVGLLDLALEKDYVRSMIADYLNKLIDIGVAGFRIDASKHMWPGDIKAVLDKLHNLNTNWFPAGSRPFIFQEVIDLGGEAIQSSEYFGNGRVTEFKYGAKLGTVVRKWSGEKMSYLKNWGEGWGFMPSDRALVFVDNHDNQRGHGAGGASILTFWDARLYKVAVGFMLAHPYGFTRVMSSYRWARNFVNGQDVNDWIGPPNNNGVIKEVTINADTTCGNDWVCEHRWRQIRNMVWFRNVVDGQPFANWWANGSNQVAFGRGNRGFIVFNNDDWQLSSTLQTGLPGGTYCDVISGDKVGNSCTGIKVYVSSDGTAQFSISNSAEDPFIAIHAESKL
The series is described as follows: α-Amylase inhibitory activity (starch/DNS). The series is classed as biochemical. The note with it: porcine pancreatic amylase, starch, pH 6.9, 25 °C; read-out: IC50 α-Amylase. The procedure: α-Amylase inhibitory activity was determined according to Ibitoye et al. with slight modifications. […] The reaction in the mixture was terminated with a 1 mL dinitrosalicylate reagent before boiling for 10 min. The cooled mixture was diluted with 5 mL distilled water, and the absorbance was read at 540 nm. The inhibitory activity was calculated using the formula below: % Inhibition=1−Absorbance of compound/Absorbance of control×100

A short description of series [4]: Ferric reducing antioxidant power (FRAP). Particulars: ferric reducing antioxidant power. Here is the method:
FRAP is a ferric (Fe^3+) to ferrous (Fe^2+) ions reduction assay that measures a compound’s electron-donating capacity, i.e., the antioxidant’s reducing power.
The mixture was incubated at 50 °C for 20 min, followed by acidification with 100 μL trichloroacetic acid (10%). After centrifugation at 3500 rpm for 10 min, 200 μL of the supernatant was transferred into another test tube containing 200 μL of distilled water and 0.8 mL of FeCl3 (0.1%). Finally, the absorbance was read at 700 nm, and the total reductive antioxidant power was calculated thus: Ferric reducing antioxidant power (%)=Absorbance of compound/Absorbance of 500µM gallic acid×100

Series [5] has as its target T1, α-glucosidase. Briefly: biochemical. The note with it: pNPG substrate, pH 6.8, 37 °C; read-out: IC50 α-Glucosidase. The procedure: The α-glucosidase inhibitory activity was evaluated using a previous method with slight modifications.
Series [6] in a line: Nitric oxide (NO) scavenging activity. Particulars: nitric oxide radical scavenging, 37 °C, 2 h. The procedure:
The screening of the present compound series for NO radical scavenging activity (Table 2) identified excellent NO scavengers.
The antioxidant capacity of the compounds to scavenge nitric oxide radicals was determined using a modified version of the protocol by Kurian et al.. Briefly, 250 μL of sodium nitroprusside (10 mM) prepared in sodium phosphate buffer (pH 7.4) was added to 500 μL of the compound solution (62.5–500 μM) or distilled water (control). The resulting solution was incubated at 37 °C for 2 h. Then, 250 μL of Griess reagent was added to the reaction mixture before the absorbance was measured at 546 nm. The nitric oxide scavenging activity of the compounds was calculated with the formula: Nitric oxide scavenging (%)=1−Absorbance of compound/Absorbance of control×100

Series [7] addresses T1, α-glucosidase. Also on record: method as in ref 22 (Taha et al.). Particulars: ref 22 (Taha et al.), cited from earlier work.
For series [8], the target named is T1, α-glucosidase. Also on record: method as in ref 23 (Izgi et al.). Particulars: ref 23 (Izgi et al.); read-out: α-glucosidase inhibition IC50; cited from earlier work.
The target in series [9] is T1, α-glucosidase. Also on record: method as in ref 28 (Asemanipoor et al.). Particulars: ref 28 (Asemanipoor et al.); read-out: α-glucosidase inhibition IC50; cited from earlier work.

Each structure is given as a SMILES string. Where two headings read alike, the source gives them in different places. Bounds are passed on as bounds.

T1 sequence (P38158 whole entry): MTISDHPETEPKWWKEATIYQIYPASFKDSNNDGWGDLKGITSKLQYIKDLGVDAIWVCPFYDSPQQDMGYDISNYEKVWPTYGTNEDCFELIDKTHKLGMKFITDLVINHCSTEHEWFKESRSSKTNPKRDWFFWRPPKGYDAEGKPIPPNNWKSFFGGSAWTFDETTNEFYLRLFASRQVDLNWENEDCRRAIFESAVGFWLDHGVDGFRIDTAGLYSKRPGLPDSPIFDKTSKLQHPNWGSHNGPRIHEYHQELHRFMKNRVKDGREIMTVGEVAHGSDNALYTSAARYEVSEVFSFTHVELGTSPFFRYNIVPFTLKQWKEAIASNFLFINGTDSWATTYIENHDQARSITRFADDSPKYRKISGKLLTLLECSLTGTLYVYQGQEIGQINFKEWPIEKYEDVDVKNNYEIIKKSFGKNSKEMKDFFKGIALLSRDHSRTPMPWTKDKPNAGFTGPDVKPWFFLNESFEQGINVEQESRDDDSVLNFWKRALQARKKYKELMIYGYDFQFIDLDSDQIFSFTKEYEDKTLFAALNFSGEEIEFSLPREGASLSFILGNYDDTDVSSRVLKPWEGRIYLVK

Broadly, the IC50 is the concentration at which inhibition is half-maximal. `CCCSc1nnc(COc2cccc3cccnc23)o1` [4b, 2-(Propylthio)-5-[(quinolin-8-yloxy)methyl]-1,3,4-oxadiazole]: the “mode of α-glucosidase inhibition” value in [1] is “non-competitive”. The IC50 was 78.2 µM in series [2]; greater than 500 µM in series [3]; greater than 500 µM in series [4]; 24.9 µM in series [5]; greater than 500 µM in series [6].
With `BrCCCCCSc1nnc(COc2cccc3cccnc23)o1` [4i, 2-[(5-Bromopentyl)thio]-5-[(quinolin-8-yloxy)methyl]-1,3,4-oxadiazole], in [1], the “mode of α-glucosidase inhibition” value is reported as “non-competitive”. Besides, the half-maximal inhibitory concentration (IC50) is 54.9 µM in series [2]; greater than 500 µM in series [3]; 22.9 µM in [4]; 15.8 µM in [5]; 198 µM in series [6].
As usually defined, the melting point is the temperature of the solid-liquid transition. On to `c1ccc(CSc2nnc(COc3cccc4cccnc34)o2)cc1` [4j, 2-(Benzylthio)-5-[(quinolin-8-yloxy)methyl]-1,3,4-oxadiazole], for which the melting point was 75.3 to 79.8 °C. The “mode of α-glucosidase inhibition” value in series [1] is recorded as “non-competitive”. Further, the IC50 in series [2] came out at 54.9 µM. Besides, in [3], the half-maximal inhibitory concentration (IC50) was greater than 500 µM. In addition, in series [4], the half-inhibitory concentration (IC50) was greater than 500 µM. Besides, the half-maximal inhibitory concentration (IC50) in [5] is 26.7 µM. For the same molecule, in series [6], half-maximal inhibition (IC50) was put at 399 µM.
As for `Fc1ccc(CSc2nnc(COc3cccc4cccnc34)o2)cc1` [4k, 2-[(4-Fluorobenzyl)thio]-5-[(quinolin-8-yloxy)methyl]-1,3,4-oxadiazole], the melting point lay within 106.9 to 109.4 °C. In series [1], the “mode of α-glucosidase inhibition” value is listed as “non-competitive”. For the same molecule, in series [2], the 50% inhibitory concentration (IC50) was found to be 81.1 µM. In series [3], the IC50 is greater than 500 µM. The 50% inhibitory concentration (IC50) in [4] was greater than 500 µM. Also, the IC50 in [5] turned out to be 23.7 µM. The same molecule came in with a 50% inhibitory concentration (IC50) in [6] greater than 500 µM.
`Clc1ccc(CSc2nnc(COc3cccc4cccnc34)o2)cc1` [4l, 2-[(4-Chlorobenzyl)thio]-5-[(quinolin-8-yloxy)methyl]-1,3,4-oxadiazole] had a melting point of 101.4 to 104.2 °C. Also, the “mode of α-glucosidase inhibition” value in [1] is “non-competitive”. In series [2], this molecule displayed a 50% inhibitory concentration (IC50) of 77.7 µM. In addition, in [3], the IC50 is greater than 500 µM. In [4], this molecule gave a 50% inhibitory concentration (IC50) greater than 500 µM. In addition, the IC50 in series [5] came out at 25.2 µM. In series [6], this molecule registered an IC50 greater than 500 µM.
In turn, `c1ccc(-n2cc(CSc3nnc(COc4cccc5cccnc45)o3)nn2)cc1` [12k, 2-{[(1-Phenyl-1H-1,2,3-triazol-4-yl)methyl]thio}-5-[(quinolin-8-yloxy)methyl]-1,3,4-oxadiazole] had a melting point of 122 to 128 °C. Besides, the “mode of α-glucosidase inhibition” value in series [1] is “non-competitive”. The IC50 in series [2] amounted to 85.7 µM. Moreover, the IC50 in [3] was greater than 500 µM. In series [4], the 50% inhibitory concentration (IC50) was greater than 500 µM. In addition, in series [5], the IC50 stood at 22.5 µM. Further, the IC50 in series [6] is greater than 500 µM.
The molecule `Fc1ccc(-n2cc(CSc3nnc(COc4cccc5cccnc45)o3)nn2)cc1` [12m, 2-{[(1-(4-Fluorophenyl)-1H-1,2,3-triazol-4-yl)methyl]thio}-5-[(quinolin-8-yloxy)methyl]-1,3,4-oxadiazole] had a melting point of 134 to 140 °C. Further, the “mode of α-glucosidase inhibition” value in series [1] is “non-competitive”. The molecule further showed an IC50 in [2] of 88.7 µM. Also, in [3], the IC50 was greater than 500 µM. The molecule further came in with an IC50 in series [4] greater than 500 µM. The concentration for half-maximal inhibition (IC50) in [5] came out at 26.8 µM. In addition, the IC50 in [6] was greater than 500 µM.
With `O=C(N/N=C/c1ccc(O)c(O)c1)c1ccc(-c2nnc(-c3ccc4ncccc4c3)o2)cc1` [A], in series [7], the “fold superior α-glucosidase inhibition compared with acarbose” value is 15 fold. Moreover, the 50% inhibitory concentration (IC50) in [7] (read-out: α-glucosidase inhibition IC50) is 2.6 µM.
With `c1ccc(-c2nnc(-c3c[nH]c4ncccc34)o2)cc1` [B], in series [8], the IC50 is 400 µM.
In the case of `CCc1ccc(NC(=O)Cn2cc(COc3ccc(-c4nc5ccccc5[nH]4)cc3)nn2)cc1` [C], in series [9], the concentration for half-maximal inhibition (IC50) is 35 µM.
